{
  "source": "patent US5872107A",
  "about": "“Treatment of urogenital cancer with boron neutron capture therapy” (Emory University, priority 1997, dated 1999)",
  "key": {"[1]": {"test_system": "primary human peripheral blood mononuclear (PBM) cells", "assay": "Cellular uptake and intracellular phosphorylation, PBM cells", "assay_type": "cell-based", "text": "(§1) Carboranyl-containing nucleosides and oligonucleotides, which are lipophilic and have a high content of boron atoms, are particularly suited for use in BNCT of urogenital tumors. Preferred compounds include 5-carboranyl-2'-deoxyuridine (CDU) and 5-o-carboranyl-1-(2-deoxy-2-fluoro-β-D-arabinofuranosyl)uracil (CFAU). […] The entrapment of this molecule in cells allows for the enhancement of the tumor-to-blood ratio for BNCT. CFAU has increased glycosidic bond stability conferred by the β-fluorine group positioned on the 2'-carbon of the nucleoside.\nIt has been discovered that boron neutron capture therapy, optionally combined with antisense oligonucleotide therapy, can be used in the treatment of urogenital cancer, and in particular, that of the prostate, bladder, and kidney. Any boron-containing compound that is sufficiently lipophilic to pass through the appropriate urogenital membranes in a quantity high enough to achieve therapy on irradiation with low-energy neutrons can be used. Carboranyl-containing nucleosides and oligonucleotides, which are lipophilic and have a high content of boron atoms, are particularly suited for use in BNCT of urogenital cancer. Preferred compounds include 5-carboranyl-2'-deoxyuridine (CDU) and 5-o-carboranyl-1-(2-deoxy-2-fluoro-β-D-arabinofuranosyl)uracil (CFAU). […]"}, "[2]": {"assay": "Plasma protein binding of CDU by equilibrium dialysis", "assay_type": "in vitro ADME, rat", "procedure": "Protein binding was determined by equilibrium dialysis. Various amounts of CDU were added to drug free rat plasma to yield CDU concentrations ranging from 0.5 to 100 μg/ml. Plexiglass dialysis cells and dialysis membrane (Spectrapor II, Spectrum Medical Industries, Los Angeles, Calif.) were used. Plasma (0.8 ml) containing different concentrations of CDU was dialyzed against 0.8 ml of isotonic sodium phosphate buffer, pH 7.4, in a shaking water bath at 37° C. for 16 hours. The post-dialysis plasma and buffer volumes were measured and samples were frozen at -20° C. until analysis. The binding data was corrected for fluid shifts that occurred during dialysis. Experiments were performed in duplicate.\nThis concentration range encompassed those observed following intravenous administration of 25 mg/kg CDU to rats. Assuming that the lipophilic compound CDU is bound predominantly by hydrophobic interactions to albumin, the equilibrium association constant for the protein binding of CDU was approximately 4×10^4 M^-1."}, "[3]": {"assay": "Urinary excretion of unchanged CDU and CDU glucuronide", "assay_type": "in vivo, Sprague-Dawley rats", "procedure": "On the morning of the experiment, rats were placed in individual metabolism cages. CDU […]) was administered intravenously in 0.1 ml of DMSO to the rats over a one minute period. Blood samples (0.35 ml) were collected prior to and at […], 2, 3, 4, 5, 6, 7 and 8 hour after CDU administration from the cannula into heparinized polypropylene microcentrifuge tubes. Blood volume was replaced with an equal volume of normal saline. Blood samples were immediately centrifuged at 2000 g for 5 minutes and plasma was separated and frozen at -20° C. until analysis. Urine was collected for 24 hour following CDU administration. Urine volume was measured and samples were frozen at -20° C. until analysis.\nFor the determination of unchanged CDU in urine, urine samples were diluted 1:50 with distilled deionized water and 100 μl of internal standard (50 μg/ml progesterone) was added and injected onto the HPLC. Concentrations of CDU glucuronide in urine were determined after hydrolyzing the glucuronate with β-glucuronidase as previously described. Glucuronide concentrations were calculated as the difference between CDU concentrations measured after hydrolysis and before hydrolysis with β-glucuronidase."}, "[4]": {"assay": "Partition coefficient of CDU in octanol:phosphate buffer (pH 7.4)", "assay_type": "physicochemical", "procedure": "The partition coefficient (P) of CDU was determined in octanol:phosphate buffer (pH 7.4). The octanol and aqueous phases were equilibrated by shaking together for 1 hour at 20° C. Two milliliters (2 ml) of octanol containing 0.5 mg/ml of CDU were shaken with 4 ml of buffer on a horizontal shaker for 12, hour at 25° C. Tubes were centrifuged to separate the phases and both phases were analyzed by HPLC as described below. The partition coefficient was calculated by dividing the CDU concentration in octanol by the CDU concentration in buffer. Results are reported as log P values.\nThe average octanol:phosphate buffer, pH 7.4, P value was determined to be 3090."}, "[5]": {"assay": "Brain uptake of CDU after loading dose and three hour intravenous infusion", "assay_type": "in vivo, Sprague-Dawley rats", "procedure": "Two adult male sprague-dawley rats weighing 305 and 312 g were used to examine the brain uptake of CDU. A loading dose of 5 mg/kg CDU in […] of DMSO was administered intravenously over a one minute period followed by three hour infusion of CDU at the rate of 5 mg/h/kg (50 μl/h) using an infusion […]. At the end of infusion blood samples were collected and rats were sacrificed. The brains were dissected and frozen at -20° C. until analysis.\nConcentrations of CDU in plasma, brain, and urine were determined by HPLC. For the determination of CDU in brain, the brain tissue was homogenized in a 1:2 (g:ml) ratio with isotonic sodium phosphate buffer, pH 7.4. To 200 μl of plasma or brain homogenate in a glass test tube, 50 μl of internal standard (20 μg/ml progesterone) and 5 ml of methylene chloride was added. Tubes were shaken for 15 minutes at low speed on a shaker, centrifuged for 5 minutes at 2000 rpm, and the plasma layer was aspirated off using a vacuum system. The remaining methylene chloride was transferred to a glass culture tube and evaporated to dryness under a stream of nitrogen gas at ambient temperature. The residue was reconstituted with 250 μl of methanol and injected onto HPLC system."}, "[6]": {"test_system": "human lymphoma (CEM) cells", "assay": "Cellular uptake and intracellular phosphorylation, CEM cells", "assay_type": "cell-based", "text": "as §1\nIt has been discovered that boron neutron capture therapy, optionally combined with antisense oligonucleotide therapy, can be used in the treatment of urogenital cancer, and in particular, that of the prostate, bladder, and kidney. Any boron-containing compound that is sufficiently lipophilic to pass through the appropriate urogenital membranes in a quantity high enough to achieve therapy on irradiation with low-energy neutrons can be used. Carboranyl-containing nucleosides and oligonucleotides, which are lipophilic and have a high content of boron atoms, are particularly suited for use in BNCT of urogenital cancer. Preferred compounds include 5-carboranyl-2'-deoxyuridine (CDU) and 5-o-carboranyl-1-(2-deoxy-2-fluoro-β-D-arabinofuranosyl)uracil (CFAU). […] The entrapment of this molecule in cells allows the enhancement of the tumor-to-blood ratio for BNCT. CFAU has increased glycosidic bond stability conferred by the β-fluorine group positioned on the 2'-carbon of the nucleoside."}, "[7]": {"conditions": "i.v. infusion to steady state, each of two rats, 5 mg/kg, 180 min"}},
  "note": "“And” between values parts separate entries of the source, which are not always exact repeats. Equal entries are not always repeated. “Also recorded” adds a separate entry of the source.",
  "data": [
    {"substance": "5-carboranyl-2'-deoxyuridine [CDU]", "values": [
      {"measurement": "intracellular phosphorylation in PBM cells (in words)", "setting": "[1]", "value": "intracellularly phosphorylated"},
      {"measurement": "uptake by PBM cells (in words)", "setting": "[1]", "value": "taken up"},
      {"measurement": "concentration dependence of plasma protein binding (in words)", "setting": "[2]; 0.5 μg/ml to 100 μg/ml", "value": "independent of the nucleoside concentration; also recorded: in a linear manner"},
      {"measurement": "bound to plasma proteins", "setting": "[2]; 0.5 μg/ml to 100 μg/ml, rat plasma, 960 min", "value": 95.5, "unit": "%"},
      {"measurement": "equilibrium association constant for the protein binding", "setting": "[2]; assuming binding predominantly to albumin, 960 min", "value": "approximately 4×10^4 M^-1"},
      {"measurement": "average fraction bound to the plasma proteins", "setting": "[2]; rat plasma, 37° C., pH 7.4, 960 min", "value": "0.95±0.02"},
      {"measurement": "unchanged CDU in urine (in words)", "setting": "[3]; 24 hours following 25 mg/kg i.v.", "value": "No unchanged CDU was detected in urine; also recorded: No unchanged CDU was recovered in urine"},
      {"measurement": "renal excretion (in words)", "setting": "[3]; rat", "value": "not renally excreted to any significant extent"},
      {"measurement": "renal tubular reabsorption (in words)", "setting": "[3]; rat, inferred from absence of unchanged CDU in urine", "value": "virtually complete renal tubular reabsorption"},
      {"measurement": "CDU glucuronide in urine (in words)", "setting": "[3]; urine treated with β-glucuronidase, 25 mg/kg i.v., 25 mg/kg", "value": "no trace of CDU glucuronide in urine; also recorded: no glucuronide metabolites were detected in urine samples"},
      {"measurement": "lipophilicity (in words)", "setting": "[4]", "value": "highly lipophilic"},
      {"measurement": "log P", "setting": "[4]", "value": 3.49},
      {"measurement": "brain:unbound plasma CDU ratio", "setting": "[5]; i.v. infusion to steady state, each of two rats", "value": "10.26 and 7.87"},
      {"measurement": "brain CDU concentration", "setting": "[5]; [7]", "value": "2.77 µg/mL and 1.81 µg/mL"},
      {"measurement": "brain:total plasma CDU concentration ratio", "setting": "[5]; [7]", "value": "0.47 and 0.36"},
      {"measurement": "total plasma CDU concentration", "setting": "[5]; [7]", "value": "5.92 µg/mL and 5.01 µg/mL"},
      {"measurement": "brain concentrations as % of total plasma CDU concentrations", "setting": "[5]; i.v. infusion to steady state, two rats, 5 mg/kg, 180 min", "value": "36 to 47", "unit": "%"},
      {"measurement": "brain:plasma ratio based on unbound vs total plasma concentrations", "setting": "[5]; unbound compared to total", "value": 20, "unit": "fold"},
      {"measurement": "intracellular formation of CDU 5'-monophosphate (in words)", "setting": "[6]; cells not separated (CEM and PBM named)", "value": "CDU 5'-monophosphate is formed intracellularly; also recorded: CDU-5'-monophosphate is formed intracellularly"},
      {"measurement": "intracellular phosphorylation in CEM cells (in words)", "setting": "[6]; human lymphoma (CEM) cells", "value": "intracellularly phosphorylated"},
      {"measurement": "uptake by CEM cells (in words)", "setting": "[6]; human lymphoma (CEM) cells", "value": "taken up"}
    ]}
  ]
}
